The source of these data is patent US20100047191A1, “NOVEL USE” (priority 2007, published 2010).

Test [1] is described as follows: Hydroxyapatite microplate erosion method (phosphate release after 1% citric acid, pH 3.8). Particulars: Example 7. The method, then: The wells of 96-well 200 μl microplates were filled with a concentrated suspension of high resolution hydroxyapatite (HA) powder (20 g HA in 200 ml acetone). The plates were allowed to dry under agitation (50 rpm on an orbital shaker) and then washed thoroughly with deionised water to remove any loose HA. For erosion experiments, the wells of the HA coated microplates were filled with deionised water and left to hydrate for 60 mins. The water was then removed and each of the 8 wells of one lane of the microplate filled with 200 μl of one of the agents to be tested. Each plate contained 12 lanes, so 6 agents could be tested in duplicate (at n=8) in each microplate. The actives were left in the wells for 30 mins under agitation, after which time the plates were again washed thoroughly with deionised water. The erosive challenge used for the study was an orange juice mimic, 1% citric acid, pH 3.8. The wells of the plate were exposed to 200 μl of the citric acid solution under agitation for 30 mins. After the acid challenge, 50 μl of the citric acid was removed from each well and placed into the corresponding well of a new 96-well microplate. 50 μl of vanadomolybdate reagent was then added to each well and after 5 mins, the absorbance of the solution in each well at 450 nm was read using a microplate plate reader. The test agents assessed using this technique were nanoparticulate zinc oxide aqueous suspension, 0.5 wt % in water, stabilised with both anionic and cationic dispersants (Nanoshield ZN-3008C and Nanoshield ZN-3014A respectively, both 70 nm average particle size and obtained from Nanophase Technologies, 1319 Marquette Drive, Romeoville, Ill. 60446. USA).
The chart contains data from one microplate, where treatments have been carried out in duplicate at n=8 each time, as described above. […] The positive control used was 300 ppm fluoride, and the negative control was deionised water.
An additional experiment was performed as described in Example 4, where the stabilising agent for the nanoparticulate zinc oxide (0.5 wt % suspension in water) was sodium hexametaphosphate (HMP) present in an amount of 2 wt % with respect to the zinc oxide (ie present in an amount of 0.01 wt %). […] The nanoparticulate zinc oxide was tested in the presence and absence of fluoride again, and at two different pH values (pH 7 and pH 9).
The experiments were performed as described in Example 4 above, using one side of a hydroxyapatite microplate (n=8). The test agents assessed in this case were a) 0.5 wt % Nanoshield ZN-3008C in water, b) 0.5 wt % zinc acetate, c) 0.5 wt % zinc citrate and d) 0.5 wt % zinc oxide (bulk material). […] Positive and negative controls used were 225 ppm fluoride and deionised water respectively.
A final hydroxyapatite microplate experiment was performed as described in Examples 4 and 5 where the stabilising agent for the nanoparticulate zinc oxide was either polyvinyl pyrrolidone (PVP) or Propylene glycol. […] The nanoparticulate zinc oxide was tested in the presence of fluoride in each case.

For test [2] the following is noted: repeated acidic erosive challenges; placebo 13.9 μm; cited from earlier work.
For test [3] the following is noted: acidic acetate buffer at pH 4.5; cited from earlier work.
Test [4] can be described thus: Enamel anti-caries softening microhardness study (lactic acid buffer). The arrangement: species or system human. The note with it: two cycles of 2 minute treatment and two hours 0.1M lactic acid buffer pH 4.5. The method, then: The study performed involved incubation of human enamel in 0.1M lactic acid buffer (pH 4.5), following a 2 minute treatment with one of the following four formulations: (A) 0.5% suspension of nano ZnO. […] (D) de-ionised water. The zinc oxide used was Nanoshield ZN-3008C as described above in Example 4. Specimens were washed with water in between treatments and erosion procedures. The acid exposure time was two hours, after which the specimens were rinsed in de-ionised water and re-treated with the appropriate formulation for 2 minutes. The specimens then were placed into the lactic acid for a further two hours. After the acid challenge they were washed thoroughly with de-ionised water and the microhardness measured. Six indents were obtained for each enamel specimen and each treatment was performed on six individual specimens (n=6).
The values for enamel hardness have been normalised relative to the individual baseline microhardness values, thus data at subsequent time points reflects softening of the enamel. The error bars in Graph 9 represent standard deviations.

Test [5] in a line: 20-day in vitro erosion cycling study (microhardness). The arrangement: species or system human. The text has this: Human enamel specimens (3×3 mm) were ground and polished using silicon carbide paper. The top side of the specimens was ground using 1200-grit paper and then serially polished using 4000-grit paper followed by […] diamond polishing suspension. Each specimen was mounted on the end of an acrylic rod (¼″ diameter×2″ long) using superglue. The sides of each specimen were covered with an epoxy resin so that only the enamel surface was exposed. Eighteen specimens per group were used for the study. Each group was composed of 3 subgroups of 6 specimens. Initial hardness of the sound specimens was determined using a Vickers hardness indenter by applying a load of 200 g for 15 seconds. The average specimen microhardness was determined from four indentations on the surface of each specimen. Only specimens with a sound surface hardness of between 300 and 350 were accepted. A 50:50 mixture of pooled, human saliva and a mineral solution was used as the remineralisation medium in all treatment regimens, and the demineralising solution was 1% citric acid, pH 3.8. The four treatments considered were: Group A) Deionised water, Group B) 300 ppm Fluoride, Group C) 0.50 wt % ZnO in deionized water, Group D) 0.50 wt % ZnO in 300 ppm Fluoride. […] The cyclic treatment regimen consisted of five, two-minute acid challenges in the demineralizing solution and three, two-minute treatment periods (with stirring at 350 rpm). After each treatment, the specimens were rinsed with running deionized water and then placed back into the saliva remineralization system. This regimen was repeated for 10 days, after which time the specimens were analysed by remeasuring their microhardness. A further 10 days of cycling was then performed and a 20 day microhardness value measured.
Statistical analysis of the data above in Graph 4 was performed with a one-way analysis of variance using Sigma Stat (3.0) Software. ANOVA indicated a significant difference so pair wise comparisons between the groups was conducted (Student Newman Keuls test).

[6] abbreviates: 0.5 wt % in 225 ppm fluoride solution, Graph 6.
Setting [7] is: 0.5 wt % in deionised water, no fluoride, Graph 5.

Turning to `O=C([O-])CC(O)(CC(=O)[O-])C(=O)[O-].O=C([O-])CC(O)(CC(=O)[O-])C(=O)[O-].[Zn+2].[Zn+2].[Zn+2]` [Zinc citrate, zinc citrate], in test [1] (setting [6]), the “preventing the demineralisation of hydroxyapatite, combination with 225 ppm fluoride compared with 225 ppm fluoride alone” value is reported as “statistically inferior to fluoride alone” and the “preventing the demineralisation of hydroxyapatite, combination with 225 ppm fluoride compared with water” value was “statistically superior to water”. Further, the “depth of complete mineral loss” value in test [2] is 10.7 μm.
As to `CC(=O)[O-].CC(=O)[O-].[Zn+2]` [zinc acetate], the “preventing the demineralisation of hydroxyapatite, combination with 225 ppm fluoride compared with 225 ppm fluoride alone” value in test [1] (setting [6]) is given as “directionally superior but statistically equivalent to 225 ppm fluoride alone”. In test [1] (setting [7]), the “preventing demineralisation of hydroxyapatite, compared with water” value is “statistically superior to water”; the “preventing the demineralisation of hydroxyapatite, compared with 225 ppm fluoride” value was “statistically inferior to both the stabilised nanoparticulate zinc oxide and 225 ppm fluoride”. Moreover, the “decreasing acid dissolution of hydroxyapatite, compared with sodium fluoride” value in test [3] is “almost as effective as sodium fluoride”.
As to `[F-].[Na+]` [300 ppm F, sodium fluoride], the “protection from the lactic acid buffer challenge” value in test [4] was “approximately 70%”. The “% VHN compared to baseline, After treatment/acid challenge” value in test [4] (n=6) is on record as 70%. In addition, in test [5] (10 days cycling), the “Change at 10 days (microhardness vs lesion baseline, mean)” value is given as −64.6. Moreover, in test [5] (10 days cycling: five 2-min 1% citric acid challenges and three 2-min treatments daily, saliva remineralisation), the “Post 10 days (Vickers microhardness, mean)” value turned out to be 189.5. Moreover, in test [5] (20 days cycling), the “Change at 20 days (microhardness vs lesion baseline, mean)” value was −20.1 and the “Post 20 days (Vickers microhardness, mean)” value came to 234.0.
